Read-outs that look alike come from different tables or passages of the source. Bounds are passed on as bounds.

Broadly, the EC50 is the concentration at which the effect is half-maximal.

One experiment relates to RSV Long strain. The experiment can be described thus: RSV CPE reduction assay. In kind it is cell-based. The following applies: human respiratory syncytial virus. As to the method:
CPE reduction assays were performed as described by Sidwell and Huffman et al., Appl Microbiol. (1971) 22(5):797-801 with slight modifications. HEp-2 cells (ATCC) at a concentration of 6000 cell/well were infected with RSV Long strain (ATCC) at a multiplicity of infection (m.o.i.) of 0.01, and each of the test compounds were provided to duplicate wells at final concentrations starting from 100 μM using ⅓ stepwise dilutions. For each compound, two wells were set aside as uninfected, untreated cell controls (CC), and two wells per test compound received virus only as a control for virus replication (VC). […] At the end of the incubation, 20 μl of cell counting kit-8 reagent (CCK-8, Dojindo Molecular Technologies, Inc.) were added to each well. After 4 hour incubation, the absorbance was measured in each well according to manufacturer's instruction, and the 50% effective concentration (EC50) was calculated by using regression analysis, based on the mean O.D. at each concentration of compound.
(§1) Compounds of Formula (I) and Formula (II) are active in the assay as noted in Tables 2 and 3, where ‘A’ indicates an EC50<1 μM, ‘B’ indicates an EC50 of >1 μM and <10 μM, ‘C’ indicates an EC50>10 μM and <100 μM, and ‘D’ indicates an EC50>100 μM.

The subject of a further experiment is RSV A2. Briefly: RSV RT-PCR based assay. Format: cell-based. The settings on record: human respiratory syncytial virus. The protocol: RT-PCR based assays were performed in HEp-2 cells (ATCC: CCL-23) at a concentration of 20000 cell/well were plated in 96 well plates and incubated overnight. Each of the test compounds were ⅓ serially diluted and dosed to HEp-2 cells in duplicates. The highest final concentration for each compound was 100 uM. After 24 hour compound pre-incubation, RSV A2 (ATCC: VR-1540) at MOI of 0.1 was added. Two wells per compound were set aside as uninfected, untreated cell controls (CC), and four wells per test compound received virus only as a control for virus replication (VC). The assay was stopped 4 days after virus infection and conditioned media was removed for viral RNA isolation. The quantities of the RSV virus were measured by real-time PCR using a set of RSV specific primers and probe. The data was analyzed with Prism software with EC50 defined as drug concentration that reduced the viral load 50% from the viral control (VC).
as §1

Where [1] appears, read: 144 h, CPE assay, HEp-2 cells infected with RSV Long strain, m.o.i. 0.01, 6 days, CCK-8 readout, read-out: EC50.
Setting [2] is: RT-PCR assay, HEp-2 cells, 24 hour compound pre-incubation, RSV A2 at MOI 0.1, 4 days after infection, viral load, read-out: EC50.

For the compound `[N-]=[N+]=N[C@]1(CO)O[C@@H](n2ccc(N)nc2=O)C(F)(F)[C@@H]1O` [Compound 1, 4′-azido-2′-deoxy-2′,2′-difluorocytidine], the EC50 with RSV Long strain (setting [1]) and in the experiment on RSV A2 (setting [2]) was less than 1 µM each time.
In the case of `[N-]=[N+]=N[C@]1(CO)O[C@@H](n2ccc(=O)[nH]c2=O)C(F)(F)[C@@H]1O` [Compound 5, 4′-azido-2′-deoxy-2′,2′-difluorouridine], the EC50 in the experiment with RSV Long strain (setting [1]) and with RSV A2 (setting [2]) was greater than 100 µM each time.
With `C[C@@H]1[C@H](n2ccc(=O)[nH]c2=O)O[C@@](CO)(N=[N+]=[N-])[C@H]1O` [Compound 6, 4′-azido-2′-deoxy-2′-methylarabinouridine], the EC50 in the experiment with RSV Long strain (setting [1]) was greater than 100 µM.
Turning to `[N-]=[N+]=N[C@]1(CO)O[C@@H](n2ccc(N)nc2=O)[C@H](O)[C@@H]1O` [Compound 7, 4′-azidocytidine], the EC50 in the experiment on RSV Long strain (setting [1]) lay within 10 to 100 µM; in the experiment on RSV A2 (setting [2]), 1 to 10 µM.
In the case of `[N-]=[N+]=N[C@]1(CO)O[C@@H](n2ccc(=O)[nH]c2=O)[C@H](O)[C@@H]1O` [Compound 8, 4′-azidouridine], the EC50 in the experiment with RSV Long strain (setting [1]) is greater than 100 µM.
As to `C[C@@H]1[C@H](n2ccc(N)nc2=O)O[C@@](CO)(N=[N+]=[N-])[C@H]1O` [Compound 9, 4′-azido-2′-deoxy-2′-methylarabinocytidine], in the experiment on RSV Long strain (setting [1]), the EC50 was greater than 100 µM.
With `[N-]=[N+]=N[C@]1(CO)O[C@@H](n2ccc(N)nc2=O)[C@@H](O)[C@@H]1O` [Compound 11, 4′-azidoarabinocytidine], the EC50 with RSV Long strain (setting [1]) and in the experiment on RSV A2 (setting [2]) was less than 1 µM throughout.
Consider `[N-]=[N+]=N[C@]1(CO)O[C@@H](n2ccc(=O)[nH]c2=O)[C@@H](O)[C@@H]1O` [Compound 12, 4′-azidoarabinouridine], for which the EC50 with RSV Long strain (setting [1]) and in the experiment with RSV A2 (setting [2]) was greater than 100 µM throughout.
For `CC(C)OC(=O)[C@H](C)NP(=S)(OC[C@@]1(N=[N+]=[N-])O[C@@H](n2ccc(=O)[nH]c2=O)[C@H](O)[C@@H]1O)Oc1ccccc1` (stereo partly drawn) [Compound 15, 4′-azidouridine 5′-(O-phenyl-N—(S)-1-(isopropoxycarbonyl)eth-1-yl)thiophosphoramidate], the EC50 with RSV Long strain (HEp-2, 144 h) was less than 1 µM; in the experiment with RSV A2 (HEp-2), less than 1 µM.
Consider `[N-]=[N+]=N[C@]1(CO)O[C@@H](n2ccc(=O)[nH]c2=O)[C@H](F)[C@@H]1O` [Compound 17, 4′-azido-2′-deoxy-2′-fluorouridine], for which the EC50 in the experiment on RSV Long strain (setting [1]) and in the experiment with RSV A2 (setting [2]) was greater than 100 µM in each case.
`CC(C)OC(=O)[C@H](C)NP(=O)(OC[C@@]1(N=[N+]=[N-])O[C@@H](n2ccc(N)nc2=O)C(F)(F)[C@@H]1O)Oc1ccccc1` (stereo partly drawn) [Compound 18, 4′-azido-2′-deoxy-2′,2′-difluorocytidine 5′-(O-phenyl-N—(S)-1-(isopropoxycarbonyl)ethyl)phosphoramidate]: the EC50 in the experiment on RSV Long strain (setting [1]) and in the experiment on RSV A2 (setting [2]) was 1 to 10 µM throughout.
Regarding `CC(C)OC(=O)[C@H](C)NP(=O)(OC[C@@]1(N=[N+]=[N-])O[C@@H](n2ccc(=O)[nH]c2=O)C(F)(F)[C@@H]1O)Oc1ccccc1` (stereo partly drawn) [Compound 19, 4′-azido-2′-deoxy-2′,2′-difluorouridine 5′-(O-phenyl-N—(S)-1-(isopropoxycarbonyl)ethyl)phosphoramidate], the EC50 in the experiment with RSV Long strain (setting [1]) and with RSV A2 (setting [2]) was greater than 100 µM each time.
`[N-]=[N+]=N[C@]1(CO)O[C@@H](n2ccc(=O)[nH]c2=O)[C@@H](F)[C@@H]1O` [Compound 20, 4′-azido-2′-deoxy-2′-fluoroarabinouridine]: the EC50 in the experiment on RSV Long strain (setting [1]) and with RSV A2 (setting [2]) was greater than 100 µM each time.
For the compound `[N-]=[N+]=N[C@@]12COP(=O)(O)O[C@H]1[C@@H](F)[C@H](n1ccc(=O)[nH]c1=O)O2` [Compound 32, 4′-azido-2′-deoxy-2′-fluorouridine 3′,5′-cyclic phosphate], in the experiment with RSV Long strain (setting [1]), the EC50 was greater than 100 µM.
Turning to `[N-]=[N+]=N[C@]1(CO)O[C@@H](n2ccc(N)nc2=O)[C@H](Cl)[C@@H]1O` [Compound 53, 4′-azido-2′-chloro-2′-deoxycytidine], the EC50 with RSV A2 (setting [2]) is 1 to 10 µM.

The record behind these values is patent US8877731B2, “Azido nucleosides and nucleotide analogs” (Alios Biopharma, Inc., priority 2010, dated 2014).
